Read-outs that look alike come from different tables or passages of the source.
Tests used:
[1] = tested on: cellular lysyl oxidase activity, ACHN; experiment: Cell-based LOX activity in kidney cancer cell line; set-up: species or system human; settings: uM range
Experimental: FIG. 38. Dose dependent inhibition of cellular LOX activity and growth inhibition in 3D upon treatment with 6232 and its analogs, 6403 and 6415.in ACHN cancer cell line. Inhibition of cell-based LOX activity in ACHN (A) and growth inhibition in collagen:matrigel (1:1) culture (B) cancer cell lines upon treatment with LOX inhibitors 6232, 6403 and 6415 (uM range). BAPN is used as a positive control (mM range) in 3D cell viability assay. Growth inhibition was measured by using 3D Cell Titer Glo kit.
(§1) For cell-based lysyl oxidase activity, fluorometric Lysly Oxidase Activity Assay Kit (Abcam, USA) was used according to manufacturer's instructions. Briefly, after the treatment, 50 μl of supernatant from each well was incubated with reagent mix and fluorescence measured in multimode-reader at Ex/Em=540/590 nm wavelength.

[2] = tested on: cellular LOX activity, Caki-1; experiment: Cell-based LOX activity in kidney cancer cell line; set-up: species or system human
Experimental: (§2) FIG. 39. Inhibition of cellular LOX activity in pancreatic and kidney cancer cell lines. Inhibition of cellular LOX activity upon the treatment with BAPN, 6232, 6403 and 6415 in kidney cell line Caki-1 (A) and pancreatic cancer cell lines Mia-Paca-2 (B) and PANC1 (C).
as §1

MAO-A = molecular target: T1, MAO-A (Homo sapiens, UniProt P21397); experiment: MAO-GLO assay; format: biochemical; settings: cell-free enzymatic activity assay
T1 construct: purchased Active Motif, USA
T1 sequence (P21397 1-527): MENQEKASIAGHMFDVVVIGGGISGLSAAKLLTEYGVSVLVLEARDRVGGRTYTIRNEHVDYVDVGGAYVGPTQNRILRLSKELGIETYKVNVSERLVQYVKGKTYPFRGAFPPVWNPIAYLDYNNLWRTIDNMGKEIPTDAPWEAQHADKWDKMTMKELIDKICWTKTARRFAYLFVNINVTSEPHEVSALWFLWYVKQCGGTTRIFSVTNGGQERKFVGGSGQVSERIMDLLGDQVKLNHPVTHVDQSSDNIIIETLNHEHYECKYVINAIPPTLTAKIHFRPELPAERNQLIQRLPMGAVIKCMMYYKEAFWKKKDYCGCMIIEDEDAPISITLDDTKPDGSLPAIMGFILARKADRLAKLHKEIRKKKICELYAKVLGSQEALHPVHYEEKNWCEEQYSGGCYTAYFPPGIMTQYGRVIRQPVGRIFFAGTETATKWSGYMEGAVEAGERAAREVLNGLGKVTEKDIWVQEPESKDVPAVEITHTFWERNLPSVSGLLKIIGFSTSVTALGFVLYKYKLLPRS
Experimental: (§3) MAO-GLO assay (Promega, USA) was used to measure the MAO-A and MAO-B activity upon LOX inhibitor treatment according to the manufacturer's instructions. For the enzyme activity, substrate was used at a concentration of 160 μM and 16 μM for MAO-A and MAO-B, respectively. MAO-A and MAO-B enzymes (Active Motif, USA) were used in 0.2 μg/per well. Reaction mix, enzymes, and drugs (30, 10, 3, 1, 0.3, and 0.1 nM) were mixed and incubated for 3 hours at RT. Then, 50 μl of luciferin was added into wells and incubated for 20 min at RT. Luciferase signals were measured by using a multimode reader.

MAO-B = molecular target: T2, MAO-B (Homo sapiens, UniProt P27338); experiment: MAO-GLO assay; format: biochemical; settings: cell-free enzymatic activity assay
T2 construct: purchased Active Motif, USA
T2 sequence (P27338 1-520): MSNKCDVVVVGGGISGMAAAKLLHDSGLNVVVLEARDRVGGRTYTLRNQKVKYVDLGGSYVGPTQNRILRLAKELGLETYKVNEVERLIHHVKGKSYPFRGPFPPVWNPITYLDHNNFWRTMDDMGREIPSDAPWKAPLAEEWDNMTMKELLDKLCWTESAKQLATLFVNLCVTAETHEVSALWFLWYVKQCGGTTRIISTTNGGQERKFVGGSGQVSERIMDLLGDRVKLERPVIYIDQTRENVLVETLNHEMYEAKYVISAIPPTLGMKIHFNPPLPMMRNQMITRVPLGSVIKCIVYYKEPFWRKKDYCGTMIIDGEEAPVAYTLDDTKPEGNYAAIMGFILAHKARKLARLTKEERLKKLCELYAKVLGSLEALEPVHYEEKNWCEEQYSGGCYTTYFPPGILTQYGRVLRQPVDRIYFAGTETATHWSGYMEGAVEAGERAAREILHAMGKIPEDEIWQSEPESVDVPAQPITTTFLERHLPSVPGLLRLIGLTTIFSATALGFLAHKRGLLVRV
Experimental: as §3

[3] = tested on: MDA-MB-231 cells embedded in collagen I; experiment: ECM crosslinking by collagen and fibronectin immunofluorescence staining; format: cell-based, human
Experimental: FIG. 31. […] A. Inhibition of LOX activity in MDA-MB-231 cells treated with 5 μM of the LOX inhibitors. B. Doxorubicin sensitization with 6232 and its analogs, 6403 and 6415, in 3D collagen-I culture. C. Collagen and fibronectin staining of vehicle or 6232 or 6403 or 6415-treated MDA-MB-231 cells embedded in collagen I. BAPN is used as a positive control.
Immunofluorescence staining of cells was done in μ-Slide 8-well glass bottom chambers (Ibidi, Germany). Cells were fixed with 4% paraformaldehyde for 20 min, permeabilized with 0.5% Triton X-100 for 10 min and blocked in 5% BSA-PBS. Samples were incubated with primary (Collagen I, Fibronectin, F-actin, a-SMA) and secondary Alexa Fluor 647 or 488-labeled antibodies for 1.5 hours at room temperature. Cells were also counterstained with DAPI for 5 min. Images were acquired using ZEN 2012 SP5 (Black) LSM 700 (Carl Zeiss, DE).

[4] = tested on: cellular lysyl oxidase (LOX) activity, MDA-MB-231 cells; experiment: Cell-based lysyl oxidase activity assay (Abcam kit); set-up: species or system human
Description: As the available LOX inhibitors are either not very potent or have toxicity, the inventors developed a robust screening pipeline shown in FIG. 28 to identify potent and safe LOX-specific and pan-LOX inhibitors. Briefly, a high-throughput cell-based LOX activity (Abcam) screen (HTS) was done for more than 5,000 drug-like compounds from the EXPRESS-Pick diversified library (4,480 molecules, ChemBridge) and Tocriscreen library of bioactive compounds (1,280 compounds, Tocris), each at a single concentration of 10 μM. […] The toxic molecules were counter screened with cell cytotoxicity assay and filtered out.
FIGS. 34. […] IC50 for cellular lysyl oxidase activity upon treatment of MDA-MB-231 cells with different LOX inhibitors. uM=microM.
as §1

[5] = tested on: cellular LOX activity, PANC1; experiment: Cell-based LOX activity in pancreatic cancer cell line; set-up: species or system human
Experimental: as §2, §1

[6] = tested on: cellular LOX activity, Mia-Paca-2; experiment: as above; set-up: species or system human
Experimental: as §2, §1

[7] = read-out: cellular LOX activity

Compound | cellular lysyl oxidase activity inhibition [1] | cellular LOX activity [2] | MAO-A activity inhibition (MAO-A) | MAO-B activity inhibition (MAO-B) | ECM crosslinking (collagen and fibronectin staining) [3] | cellular lysyl oxidase inhibition compared to BAPN [4] | cellular LOX activity [5] | cellular LOX activity [6] | IC50 ([4]; read-out: IC50 for cellular lysyl oxidase inhibition) [nM] | IC50 [4, 7] [nM]
Cc1nc(N)sc1-c1csc(Nc2ccc([N+](=O)[O-])cc2)n1 [compound 6232, 4-methyl-5-[2-(4-nitroanilino)thiazol-4-yl]thiazol-2-amine] | dose dependent cellular lysyl oxidase activity inhibition | inhibited cellular LOX activity | did not inhibit | did not inhibit | decrease in ECM crosslinking | more potent | inhibited cellular LOX activity | inhibited cellular LOX activity | – | –
CC(=O)Nc1ccc(Nc2nc(-c3sc(N)nc3C)cs2)cc1 [compound 6403, N-[4-[[4-(2-amino-4-methyl-thiazol-5-yl)thiazol-2-yl]amino]phenyl]acetamide] | dose dependent cellular lysyl oxidase activity inhibition | inhibited cellular LOX activity | did not inhibit | did not inhibit | decrease in ECM crosslinking | more potent | inhibited cellular LOX activity | inhibited cellular LOX activity | 1300 | 1300
Cc1nc(N)sc1-c1csc(N(C)c2ccc(O)cc2)n1 [compound 6415, 4-[[4-(2-amino-4-methyl-thiazol-5-yl)thiazol-2-yl]-methyl-amino]phenol] | dose dependent cellular lysyl oxidase activity inhibition | inhibited cellular LOX activity | did not inhibit | did not inhibit | decrease in ECM crosslinking | more potent | inhibited cellular LOX activity | inhibited cellular LOX activity | – | 3500
